Common to all, as to assay type: cell-based
The subject of experiment [1] is Candida albicans 90028. Put plainly: In vitro antifungal assay (Example IX), microdilution broth, MIC. The settings on record: minimum inhibitory concentration (≥50% inhibition), 35° C., 40-48 h, RPMI1640. The essentials:
(§1)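 Yeast inocula (2.5×10^3 cells/mL, RPMI1640) were exposed to twofold compound series reaching 2-0.0019 μg/mL final, per CLSI yeast methodology. Incubation at 35° C. ran 40-48 h for Candida albicans 90028 and 72 h for Cryptococcus neoformans H99. MIC endpoints were confirmed by absorbance at 600 nm.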
(Broth dilution looks for growth in wells or tubes with falling amounts of substance.)

Experiment [2] concerns Cryptococcus neoformans H99. Described as above. The conditions noted are these: minimum inhibitory concentration (≥50% inhibition), 35° C., 72 h, RPMI1640. The essentials: as §1
Experiment [3] relates to Aspergillus fumigatus MYA3626. The experiment is described as follows: In vitro antifungal assay (Example IX), microdilution broth, MEC. The settings on record: minimum effective concentration (shortening of hyphae), 35° C., 40-48 h, RPMI1640. The essentials:
(§2)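 Read-out is the minimum effective concentration: lowest compound level causing shorter hyphae than in DMSO controls, echinocandin-style. Broth microdilution used conidia or spores harvested from agar plates, cleared of mycelium and clumps, at a final 1-2×10^4 spores/mL in RPMI1640.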

Experiment [4] relates to Rhizomucor pusillus 46342. Described as above. The settings on record: minimum effective concentration (shortening of hyphae), 35° C., 40-48 h, RPMI1640. The essentials:
as §2

For experiment [5], the system named is Cryptococcus gattii. The experiment is described as follows: In vitro antifungal assay (Example IX), microdilution broth, MIC. The conditions noted are these: minimum inhibitory concentration (≥50% inhibition), 35° C., 72 h (Cryptococcus), RPMI1640. As to the method:
Preparation of Fungal Suspension. C. albicans 90028 and C. neoformans H99 strains were streaked from frozen stocks at −80° C. onto Sabouraud Dextrose Agar (SDA) plates. These were allowed to grow for 24 h (C. albicans) and 48 h (C. neoformans) at 35° C. before using them in the assay. 5-6 individual colonies were picked and diluted into sterile water to obtain a fungal suspension. The cell density of the suspension was determined and the culture diluted with RPMI1640 medium to obtain a fungal suspension of 2.5×10^3 cells/mL. The suspension was used in the MIC measurement as described below.
Preparation of Compound Stocks and Intermediate Dilutions: The compounds were weighed and DMSO was added to prepare a 10 mg/mL stock. The solutions were mixed by vortexing and sonication at 37° C. for 5-10 mins. The resulting solutions were sterile filtered using a PTFE filter, and aliquoted (12 μL or as needed) and stored at −20° C. Intermediate compound dilutions were prepared in sterile polypropylene tubes in 100% DMSO. The compound stock solution was first diluted in DMSO to obtain a concentration of […] to 0.19 μg/mL.
MIC/MEC Measurement: 99 μL 1 of the fungal suspension in RPMI1640 prepared as above was added to each well of a 96-well round bottom assay plate. 1 μL of the intermediate compound dilutions (200-0.19 μg/mL) were added to wells of the plate. This led to a 100-fold dilution of the intermediate dilutions resulting in a final compound concentration of 2-0.0019 μg/mL in the plate. 1 μL of DMSO was added to “No drug” control wells. The solutions were mixed by shaking on a plate shaker for 10 mins and plates incubated at 35° C. for 40-48 h (C. albicans, A. fumigatus, R. pusillus) and 72 h (Cryptococcus). […] This was validated by thorough mixing and reading at 600 nm on a microplate reader. The minimum concentration that led to shortening of hyphae as compared to hyphal growth in DMSO control wells was determined as the minimum effective concentration (MEC) for A. fumigatus and R. pusillus (as read for echinocandins). The use of the MIC and MEC endpoints against yeasts and molds, respectively has been described by Pfaller M A, Duncanson F, Messer S A, Moet G J, Jones R N, Castanheira M. Antimicrob Agents Chemother. 2011. 55(11):5155-8. In vitro activity of a novel broad-spectrum antifungal, E1210, tested against Aspergillus spp. determined by CLSI and EUCAST broth microdilution methods. Results are shown in Table 2, and the letters indicate the following ranges in μg/mL: […]

In brackets after ≈: the same amount, converted by molar mass. Bounds are passed on as bounds.

What is called MIC is the lowest concentration found to suppress growth. A higher MIC goes with a need for much substance. Usually minimal effective concentration stands for the smallest amount tested that counted as effective. Take `Nc1ncccc1-c1cc(Cc2ccc(OCc3cccc(F)c3)cc2)no1` [Example 138, 3-(3-(4-((3-fluorobenzyl)oxy)benzyl)isoxazol-5-yl)pyridin-2-amine]: the MIC in experiment [1] was 0.01 to 0.1 µg/mL (≈ 0.0266 to 0.266 µM); in experiment [2] it was 0.01 to 0.1 µg/mL (≈ 0.0266 to 0.266 µM); in experiment [5], at most 0.01 µg/mL. The minimal effective concentration in experiment [3] lay within 0.01 to 0.1 µg/mL; in experiment [4] it was 0.1 to 1 µg/mL.

For `Nc1ncccc1-c1cc(Cc2ccc(OCc3ccncc3)cc2)no1` [Example 139, 3-(3-(4-(pyridin-4-ylmethoxy)benzyl)isoxazol-5-yl)pyridin-2-amine], the MIC in experiment [1] is 0.01 to 0.1 µg/mL (≈ 0.0279 to 0.279 µM); in experiment [2], 0.01 to 0.1 µg/mL (≈ 0.0279 to 0.279 µM); in experiment [5] it was at most 0.01 µg/mL. For the same molecule, the values for the minimal effective concentration in experiment [3] and in experiment [4] were 0.1 to 1 µg/mL and above 1 µg/mL, respectively.

On to `Nc1ncccc1-c1cc(Cc2ccc(OCc3ccccn3)cc2)no1` [Example 140, 3-(3-(4-(pyridin-2-ylmethoxy)benzyl)isoxazol-5-yl)pyridin-2-amine], for which the MIC in experiment [1] is at most 0.01 µg/mL; in experiment [2], 0.01 to 0.1 µg/mL (≈ 0.0279 to 0.279 µM); in experiment [5] it was 0.01 to 0.1 µg/mL (≈ 0.0279 to 0.279 µM). The minimal effective concentration in experiment [3] lay in the range of 0.01 to 0.1 µg/mL; in experiment [4] it was 0.1 to 1 µg/mL.

Consider `Nc1ncccc1-c1cc(Cc2ccc(OCc3ccccc3F)cc2)no1` [Example 141, 3-(3-(4-((2-fluorobenzyl)oxy)benzyl)isoxazol-5-yl)pyridin-2-amine], for which the MIC in experiment [1], in experiment [2] and in experiment [5] was 0.01 to 0.1 µg/mL (≈ 0.0266 to 0.266 µM) throughout. Also, the values for the minimal effective concentration in experiment [3] and in experiment [4] were 0.01 to 0.1 µg/mL and 0.1 to 1 µg/mL, respectively.

Regarding `Nc1ncccc1-c1cc(Cc2ccc(Oc3ccccc3)nc2)no1` [Example 143, 3-(3-((6-phenoxypyridin-3-yl)methyl)isoxazol-5-yl)pyridin-2-amine], the MIC in experiment [1] was 0.1 to 1 µg/mL (≈ 0.29 to 2.9 µM); in experiment [2] it was 0.01 to 0.1 µg/mL (≈ 0.029 to 0.29 µM); in experiment [5], at most 0.01 µg/mL. For the same molecule, the results for the minimal effective concentration in experiment [3] and in experiment [4] were 0.01 to 0.1 µg/mL and 0.1 to 1 µg/mL, respectively.

On to `Nc1ncccc1-c1cc(Cc2ccc(Nc3ccccc3)cc2)no1` [Example 144, 3-(3-(4-(phenylamino)benzyl)isoxazol-5-yl)pyridin-2-amine], for which the MIC in experiment [1], in experiment [2] and in experiment [5] was 0.01 to 0.1 µg/mL (≈ 0.0292 to 0.292 µM) throughout. Besides, the minimal effective concentration is 0.01 to 0.1 µg/mL in experiment [3] and 0.1 to 1 µg/mL in experiment [4].

Consider `Nc1ncccc1-c1cc(Cc2ccnc(OCCc3cccc(F)c3)c2)no1` [Example 146, 3-(3-((2-(3-fluorophenethoxy)pyridin-4-yl)methyl)isoxazol-5-yl)pyridin-2-amine], for which the MIC in experiment [1], in experiment [2] and in experiment [5] was 0.1 to 1 µg/mL (≈ 0.256 to 2.56 µM) throughout. Further, the minimal effective concentration in experiment [3] and in experiment [4] was above 1 µg/mL in each case.

For `Nc1ncccc1-c1cc(Cc2ccnc(OCc3ccccc3)c2)no1` [Example 148, 3-(3-((2-(benzyloxy)pyridin-4-yl)methyl)isoxazol-5-yl)pyridin-2-amine], the MIC in experiment [1], in experiment [2] and in experiment [5] was 0.01 to 0.1 µg/mL (≈ 0.0279 to 0.279 µM) in each case. In addition, the minimal effective concentration fell in the range of 0.01 to 0.1 µg/mL in experiment [3] and 0.1 to 1 µg/mL in experiment [4].

As for `Nc1ncccc1-c1cc(Cc2ccnc(OCc3ccccc3F)c2)no1` [Example 149, 3-(3-((2-((2-fluorobenzyl)oxy)pyridin-4-yl)methyl)isoxazol-5-yl)pyridin-2-amine], the MIC lay within 0.01 to 0.1 µg/mL (≈ 0.0266 to 0.266 µM) in experiment [1], 0.01 to 0.1 µg/mL (≈ 0.0266 to 0.266 µM) in experiment [2] and 0.1 to 1 µg/mL (≈ 0.266 to 2.66 µM) in experiment [5]. For the same molecule, the results for the minimal effective concentration in experiment [3] and in experiment [4] were 0.01 to 0.1 µg/mL and above 1 µg/mL, respectively.

For the molecule `Nc1ncccc1-c1cc(Cc2ccnc(OCC3CC3)c2)no1` [Example 150, 3-(3-((2-(cyclopropylmethoxy)pyridin-4-yl)methyl)isoxazol-5-yl)pyridin-2-amine], the MIC in experiment [1], in experiment [2] and in experiment [5] was 0.1 to 1 µg/mL (≈ 0.31 to 3.1 µM) each time. Further, the minimal effective concentration in experiment [3] was 0.1 to 1 µg/mL; in experiment [4] it was above 1 µg/mL.

In the case of `Nc1ncccc1-c1cc(Cc2ccc(OCc3ccnc(F)c3)nc2)no1` [Example 154, 3-(3-((6-((2-fluoropyridin-4-yl)methoxy)pyridin-3-yl)methyl)isoxazol-5-yl)pyridin-2-amine], the minimum inhibitory concentration (MIC) in experiment [1], in experiment [2] and in experiment [5] was 0.01 to 0.1 µg/mL (≈ 0.0265 to 0.265 µM) throughout. The minimal effective concentration in experiment [3] fell in the range of 0.01 to 0.1 µg/mL; in experiment [4] it was 0.1 to 1 µg/mL.

Consider `Nc1ncccc1-c1cc(Cc2ccc(OCCn3cccn3)nc2)no1` [Example 156, 3-(3-((6-(2-(1H-pyrazol-1-yl)ethoxy)pyridin-3-yl)methyl)isoxazol-5-yl)pyridin-2-amine], for which the MIC is 0.1 to 1 µg/mL (≈ 0.276 to 2.76 µM) in experiment [1], 0.1 to 1 µg/mL (≈ 0.276 to 2.76 µM) in experiment [2] and above 1 µg/mL in experiment [5]. Also, the minimal effective concentration in experiment [3] and in experiment [4] was above 1 µg/mL in each case.

As for `C#CCOc1ccc(Cc2cc(-c3cccnc3N)on2)cn1` [Example 157, 3-(3-((6-(prop-2-yn-1-yloxy)pyridin-3-yl)methyl)isoxazol-5-yl)pyridin-2-amine], the MIC in experiment [1] is above 1 µg/mL; in experiment [2] it was 0.1 to 1 µg/mL (≈ 0.326 to 3.26 µM); in experiment [5], 0.1 to 1 µg/mL (≈ 0.326 to 3.26 µM). Further, the minimal effective concentration in experiment [3] and in experiment [4] was 0.1 to 1 µg/mL throughout.

Consider `Nc1ncccc1-c1cc(Cc2ccc(Oc3ccc(F)cc3)nc2)no1` [Example 160, 3-(3-((6-(4-fluorophenoxy)pyridin-3-yl)methyl)isoxazol-5-yl)pyridin-2-amine], for which the MIC in experiment [1], in experiment [2] and in experiment [5] was 0.1 to 1 µg/mL (≈ 0.276 to 2.76 µM) each time. Moreover, the minimal effective concentration in experiment [3] lay within 0.01 to 0.1 µg/mL; in experiment [4] it was 0.1 to 1 µg/mL.

With `Nc1ncccc1-c1cc(Cc2ccc(Oc3cccc(Cl)c3)nc2)no1` [Example 161, 3-(3-((6-(3-chlorophenoxy)pyridin-3-yl)methyl)isoxazol-5-yl)pyridin-2-amine], the MIC in experiment [1], in experiment [2] and in experiment [5] was 0.01 to 0.1 µg/mL (≈ 0.0264 to 0.264 µM) each time. The minimal effective concentration in experiment [3] fell in the range of 0.01 to 0.1 µg/mL; in experiment [4] it was 0.1 to 1 µg/mL.

With `COc1cc(COc2ccc(Cc3cc(-c4cccnc4N)on3)cn2)ccn1` [Example 165, 3-(3-((6-((2-methoxypyridin-4-yl)methoxy)pyridin-3-yl)methyl)isoxazol-5-yl)pyridin-2-amine], the MIC in experiment [1] is 0.1 to 1 µg/mL (≈ 0.257 to 2.57 µM); in experiment [2], 0.01 to 0.1 µg/mL (≈ 0.0257 to 0.257 µM); in experiment [5], 0.01 to 0.1 µg/mL (≈ 0.0257 to 0.257 µM). The minimal effective concentration lay in the range of 0.01 to 0.1 µg/mL in experiment [3] and 0.1 to 1 µg/mL in experiment [4].

As to `Nc1ncccc1-c1cc(Cc2ccc(COc3ccccc3F)cc2)no1` [Example 168, 3-(3-(4-((2-fluorophenoxy)methyl)benzyl)isoxazol-5-yl)pyridin-2-amine], the MIC in experiment [1] was 0.01 to 0.1 µg/mL (≈ 0.0266 to 0.266 µM); in experiment [2], 0.1 to 1 µg/mL (≈ 0.266 to 2.66 µM); in experiment [5] it was 0.01 to 0.1 µg/mL (≈ 0.0266 to 0.266 µM). For the same molecule, the figures for the minimal effective concentration in experiment [3] and in experiment [4] were 0.01 to 0.1 µg/mL and 0.1 to 1 µg/mL, respectively.

Regarding `Nc1ncccc1-c1cc(Cc2cnc(OCc3ccccc3F)c(F)c2)no1` [compound 260, 3-(3-((5-fluoro-6-((2-fluorobenzyl)oxy)pyridin-3-yl)methyl)isoxazol-5-yl)pyridin-2-amine], the figures for the MIC in experiment [1], in experiment [2] and in experiment [5] were 0.1 to 1 µg/mL (≈ 0.254 to 2.54 µM), 0.1 to 1 µg/mL (≈ 0.254 to 2.54 µM) and above 1 µg/mL, respectively. The same molecule showed a minimal effective concentration in experiment [3] of 0.1 to 1 µg/mL.

The values are drawn from patent US11512079B2, “Heterocycle substituted pyridine derivative antifungal agents” (Amplyx Pharmaceuticals, Inc., priority 2017, dated 2022).
